We go through 1 compound from US10203334B2, “Methods and compositions related to nucleic acid binding assays” (Nubad, LLC, priority 2012, dated 2019).

The structures appear in SMILES notation. Read-outs that look alike come from different tables or passages of the source.

Series [1] can be described thus: pKa of free probe from pH-dependent absorbance spectra. In kind it is physicochemical. As for the experimental part: The mechanism for change in fluorescence of F-Neo upon binding to A-site rRNA oligonucleotide (SEQ ID No. 1) using UV absorption spectroscopy was investigated. Effect of pH on the absorbance spectra of 3.0 mM fluorescein-neomycin in 20 mM MOPSO, 0.4 mM EDTA, 50 mM NaCl at the indicated pH values were studied.
With increasing pH, fluorescein-neomycin undergoes a transition between mono-anion and di-anion species. Fluorescein-neomycin concentration was 10 μM in 100 mM NaCl, 10 mM SC, 0.5 mM EDTA. As indicated by its absorbance spectra in FIG. 8A, the F-neo transitions from a mono-anion to a di-anion with increasing pH. FIG. 8B compares the absorbance spectra between the mono-anion and di-anion species of fluorescein neomycin. […] The absorbance peak of about 490 nm in FIGS. 8A and 8B is consistent with the phenolate species of fluorescein. The pKa for the equilibrium of the phenol and phenolate forms of F-neo (42a) was measured by evaluating the absorbance spectrum as a function of pH and shown to be 6.84. […] When monitoring the absorption spectrum in the presence of the A-site RNA (SEQ ID No. 1), a reduction in A490 consistent with the change in pKa was observed. […] This shift in pKa causes a change in the fluorescence intensity of F-neo (42a). […]

In series [2] the test system is 13 different nucleic acid structures. Nature of the series: Competition dialysis, whole panel. In kind it is binding. The settings on record: Na^+ concentration increases from 100 to 200 mM. From the text: Disclosed is the use of fluorescent aminosugar probes such as F-neo (42a) to probe a variety of nucleic acid targets. Competition dialysis was used as a nucleic acid screening technique to illustrate the binding of F-neo (42a) to different nucleic acid structures.
Competition dialysis studies using a fluorescein-neomycin conjugate (F-neo (42a)). […] Comparative binding of F-neo (42a) to 13 different nucleic acid structures was examined which included single strand nucleic acids [poly(dT), poly(A), poly(U)], duplexes [poly(dA).poly(dT), poly(rA).poly(dT), poly(rA).poly(rU), poly(dA).poly(rU), poly(dG).poly(dC), calf thymus], triplexes [poly(dA).2poly(dT), poly(rA).2poly(rU)], i-motif (polydC) and 16S A-site rRNA (SEQ ID No. 1). The amount of F-neo (42a) bound to each nucleic acid is shown as a bar graph in FIG. 13. Because all nucleic acids are dialyzed simultaneously in the same ligand solution, the amount of bound F-neo (42a) is directly proportional to its affinity for each nucleic acid. […] 200 μL of different nucleic acids (7.5 μM per monomeric unit of each polymer) was dialyzed for 72 h with 400 mL 100 nM ligand in 6 mM Na2HPO4, 2 mM NaH2PO4, 1 mM Na2EDTA, pH 7.0 and various Na+ concentrations as indicated.
The binding of F-neo (42a) to nucleic acids is affected by the salt concentration. […]

With `NCC1O[C@H](OC2C(O)C(OC3C(O)[C@H](N)CC(N)[C@H]3O[C@H]3OC(CN)[C@@H](O)C(O)C3N)O[C@@H]2CSCCNC(=O)CCSCC(=O)Nc2ccc(-c3c4ccc(=O)cc-4oc4cc(O)ccc34)c(C(=O)O)c2)C(N)C(O)[C@@H]1O` (stereo partly drawn) [F-neo (42a), Neomycin-Fluorescein Conjugate], the pKa (in general, the negative logarithm of the acid dissociation constant) in series [1] (buffer: 100 mM NaCl, free, 10 μM, 100 mM NaCl, 10 mM SC, 0.5 mM EDTA at 25° C., read-out: pKa) was determined as 6.57; in series [1] (free probe, absorbance spectrum as a function of pH, read-out: pKa for the equilibrium of the phenol and phenolate forms), 6.84. Also, the “decrease of amount bound for each nucleic acid structure” value in series [2] is listed as 4-5 times.
